From patent US7598244B2, “[1,2,4]triazolo[1,5,a]pyrimidin-2-ylurea derivative and use thereof” (Nippon Kayaku Kabushiki Kaisha, priority 2003, dated 2009)
Like-named read-outs stand apart in the source and are kept apart here.

How the values were obtained:
Type in all cases: cell-based
[1] = tested on: MHC class I molecules of T1 cells (human lymphoma cell line 174×CEM.); assay: Effect on expression of MHC class I from T1 cells (flow cytometry, MFI); conditions: 3 days culture
Procedure, shortened: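 EC20 is the compound level that lowers MHC class I MFI by 20% relative to compound-free cultures. Read-out was flow cytometry after FITC W6/32 staining.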

[2] = tested on: MHC class I molecules of human peripheral blood-derived dendritic cells; assay: Effect on expression of MHC class I molecules from human peripheral blood-derived dendritic cells; conditions: dendritic cells matured with TNF-α, 3 days; read-out: EC50 (reduction of 50% of the number of cells wherein MHC class I molecules were highly expressed)
Text: Effect on Expression of MHC Class I Molecules from Human Peripheral Blood-Derived Dendritic Cells
Monocytes were isolated from human peripheral blood by the specific gravity centrifugation method. Thereafter, using mouse anti-human CD14 antibody-binding microbeads and a magnetic cell separation system (Miltenyi Biotec), CD14 positive cells were separated from the peripheral blood monocytes. The separated CD14 positive cells were suspended in an RPMI 1640 medium containing 10% FBS, and the suspension was then inoculated in a 6-well plate, resulting in a concentration of 1.0×10^6 cells/well. It was cultured at 37° C. for 20 minutes in an incubator containing 5% carbon dioxide. […] Thereafter, RPMI 1640 containing a 500 U/ml human recombinant […] (hereinafter referred to as GM-CSF; Anapure Bioscientific), 50 ng/ml human recombinant interleukin 4 (hereinafter referred to as IL-4; Pepro Tech), and 10% FBS, was added to the remaining suspension at a concentration of 2 ml/well. The obtained mixture was then cultured at 37° C. in an incubator containing 5% carbon dioxide. When adhesive CD14 positive cells are cultured in the presence of GM-CSF and IL-4, the CD14 positive cells were differentiated into non-adhesive immature dendritic cells. After the cells had been cultured for 7 days, non-adhesive cells were recovered to obtain immature dendritic cells. Using a 6-well plate, the immature dendritic cells (2.5×10^5 cells/well) were cultured in RPMI 1640 containing a 100 U/ml human recombinant tumor necrosis factor-α (hereinafter referred to as TNF-a; Pepro Tech), a test compound, and 10% FBS, at 37° C. for 3 days in an incubator containing 5% carbon dioxide. The dendritic cells became mature as a result of the presence of TNF-α, but in the present test, a test compound was allowed to simultaneously act on the cells. The mature dendritic cells were then stained with fluoroisothiocyanate-labeled mouse anti-human MHC class I monoclonal antibody (an antibody generated from the cell line W6/32 (ATCC No. CRL 1991)). The rate of the number of cells wherein MHC class I molecules were highly expressed to the total number of cells was measured by flow cytometry. The reduction rate of the number of cells wherein MHC class I molecules were highly expressed was calculated using the following formula (2), and the concentrations of test compounds necessary for reduction of 50% (EC50 values) were obtained.
[formula] • Eexp: (The number of cells, wherein MHC class I molecules are highly expressed, in cultured cells containing test compound)/(the total number of cells) • Cexp: (The number of cells, wherein MHC class I molecules are highly expressed, in cultured cells containing no test compounds)/(the total number of cells)

[3] = tested on: human dendritic cells cultured with human allogenic T cells; assay: Effect on the ability of human dendritic cells to induce the growth of allogenic T cells ([3H]-thymidine incorporation); conditions: dendritic cells treated 3 days with test compound and TNF-α, then 5 days with allogenic T cells, read-out: IC50 (inhibition of DNA synthesis of lymphocytes)
Procedure: Effect on the Ability of Human Dendritic Cells to Induce the Growth of Allogenic T Cells
Immature dendritic cells were cultured with a test compound and TNF-α for 3 days by the same method as that described in Test Example 2. The obtained dendritic cells (2.5×10^3 cells/50 μl/well) were cultured together with human allogenic T cells (2.0×10^5 cells/150 μl/well) in a 96-well flat bottom plate at 37° C. for 5 days in an incubator containing 5% carbon dioxide. Thereafter, [^3H]-thymidine (Amersham Pharmacia Biotech) was added thereto at an amount of 1 μCi/10 μl/well, 16 hours before completion of the culture. After completion of the culture, cells were captured on a glass filter using a cell harvester (Skatron Instrument) and then dried. Thereafter, Scintillator ACS-II (Amersham Pharmacia Biotech) was added thereto, and the radioactivity of [^3H]-thymidine incorporated into the cells were then measured using a liquid scintillation counter. The inhibition rate of the DNA synthesis of lymphocytes was calculated using the following formula (3). Thereafter, the concentration of a test compound necessary for inhibition of 50% (IC50 value) was obtained.
[formula] • Eexp: The amount of [^3H]-thymidine incorporated into cultured cells containing test compound • Cexp: The amount of [^3H]-thymidine incorporated into cultured cells containing no test compounds

SMILES	EC20 (concentration necessary for suppressing 20% of the expression level of MHC class I molecules) [1]	EC50 [2]	IC50 ([3]; Homo sapiens)	IC50 [3]
COc1ccc(-c2ccnc3nc(NC(=O)N[C@@H](C)C(=O)OC(C)(C)C)nn23)cc1 [Example 049]	230 nM	210 nM	1630 nM	
COc1ccc(-c2ccnc3nc(NC(=O)NCCC(=O)NCC4CCCO4)nn23)cc1 (stereo not shown) [Example 158]	390 nM			690 nM
CC(=O)c1cccc(NC(=O)Nc2nc3nccc(-c4cccs4)n3n2)c1 [Example 005]				650 nM
COc1ccc(-c2ccnc3nc(NC(=O)NC(C(=O)NCC4CCCO4)C(C)C)nn23)cc1 (stereo not shown) [Example 071]	530 nM	670 nM		
COc1ccc(-c2ccnc3nc(NC(=O)NC4CCCCC4)nn23)cc1 [Example 015]	45 nM	130 nM	380 nM	
COc1ccc(-c2ccnc3nc(NC(=O)N[C@H](C(=O)NCCN(C)C)C(C)C)nn23)cc1 [Example 057]				2700 nM
COc1ccc(-c2ccnc3nc(NC(=O)NC4CCN(Cc5ccccc5)CC4)nn23)cc1 [Example 059]	230 nM	530 nM		
O=C(Nc1ccccc1)Nc1nc2nccc(-c3cccs3)n2n1 [Example 001, 1-phenyl-3-[(7-thiophen-2-yl)-[1,2,4]triazolo[1,5-a]pyrimidin-2-yl]urea]	1100 nM	460 nM	1230 nM	
COc1ccc(-c2ccnc3nc(NC(=O)NC(C)C)nn23)cc1 [Example 030]	400 nM	480 nM	1250 nM	
O=C(Nc1nc2nccc(-c3ccc(O)cc3)n2n1)NC1CCCCC1 [Example 024]	240 nM	160 nM	820 nM	
COc1ccc(-c2ccnc3nc(NC(=O)NCCCN4CCOCC4)nn23)cc1 [Example 067]	300 nM	2220 nM		
COc1ccc(-c2ccnc3nc(NC(=O)NC4CCCC4)nn23)cc1 [Example 027]	67 nM	220 nM		
COc1ccc(-c2ccnc3nc(NC(=O)N[C@H](C(=O)N4CCN(C)CC4)C(C)C)nn23)cc1 [Example 069]	410 nM	2850 nM		
O=C(Nc1nc2nccc(-c3cccs3)n2n1)NC1CCCCC1 [Example 007]	180 nM	660 nM	970 nM	
COCOc1cccc(-c2ccnc3nc(NC(=O)N[C@@H](C)c4cccc(OC)c4)nn23)c1 [Example 212]	180 nM			
CC(C)CCC[C@H](C)NC(=O)Nc1nc2nccc(-c3ccc(OCc4ccccc4)cc3)n2n1 [Example 245, (S)-1-[7-(4-benzyloxyphenyl)-[1,2,4]triazolo[1,5-a]pyrimidin-2-yl]-3-(1,5-dmethylhexyl)urea]	180 nM			
COc1ccc(-c2ccnc3nc(NC(=O)N[C@@H](C)C(C)(C)C)nn23)cc1 [Example 217]	320 nM			

SMILES	EC20 (concentration necessary for suppressing 20% of the expression level of MHC class I molecules) [1]	EC50 [2]	IC50 ([3]; Homo sapiens)	IC50 [3]
COc1cccc([C@H](C)NC(=O)Nc2nc3nccc(-c4ccc(OCCN5CCOCC5)cc4)n3n2)c1 [Example 269]	15 nM			
CC(C)CCC[C@H](C)NC(=O)Nc1nc2nccc(-c3cccc(OCC4CCCO4)c3)n2n1 (stereo partly shown) [Example 260]	60 nM			
COCCOCCOCCOc1ccc(-c2ccnc3nc(NC(=O)N[C@@H](C)c4cccc(OC)c4)nn23)cc1 [Example 238]	15 nM			
CC(C)CCC[C@H](C)NC(=O)Nc1nc2nccc(-c3cccc(OCc4cccnc4)c3)n2n1 [Example 261]	80 nM			
COc1ccc(-c2ccnc3nc(NC(=O)NC(C)CCC(=O)N4CCOCC4)nn23)cc1 (stereo not shown) [Example 273]	600 nM			
COc1cccc(-c2ccnc3nc(NC(=O)N[C@@H](C)CCCC(C)C)nn23)c1 [Example 188]	80 nM			
COc1cccc([C@H](C)NC(=O)Nc2nc3nccc(-c4cccc(OCc5cccnc5)c4)n3n2)c1 [Example 202]	60 nM			
COc1ccc(-c2ccnc3nc(NC(=O)N[C@H]4CCCc5ccccc54)nn23)cc1 [Example 134]	50 nM			
CC(C)CCC[C@H](C)NC(=O)Nc1nc2nccc(-c3ccc(O)cc3)n2n1 [Example 255, (S)-1-(1,5-dimethylhexyl)-3-[7-(4-hydroxyphenyl)-[1,2,4]triazolo[1,5-a]pyrimidin-2-yl]urea]	5.6 nM			
COc1ccc(-c2ccnc3nc(NC(=O)NC(C)CCCC(=O)N4CCOCC4)nn23)cc1 (stereo not shown) [Example 275]	540 nM			
COc1ccc(-c2ccnc3nc(NC(=O)NCc4ccccc4)nn23)cc1 [Example 018]	52 nM	290 nM		
COC(=O)[C@H](C)NC(=O)[C@@H](NC(=O)Nc1nc2nccc(-c3ccc(OC)cc3)n2n1)C(C)C [Example 098]	140 nM			
CC(COCC1CCOCC1)NC(=O)Nc1nc2nccc(-c3ccc4c(c3)OCO4)n2n1 (stereo not shown) [Example 335]	260 nM			
COc1ccc(-c2ccnc3nc(NC(=O)N[C@H](C(=O)NC4CCN(Cc5ccccc5)CC4)C(C)C)nn23)cc1 [Example 074]	550 nM			
CCOCC[C@H](C)NC(=O)Nc1nc2nccc(-c3ccc(OCC4CCOCC4)cc3)n2n1 [Example 328]	70 nM			
COCOc1ccc(-c2ccnc3nc(NC(=O)N[C@@H](C)c4cccc(OC)c4)nn23)cc1 [Example 226]	50 nM			
